From patent US20210221848A1, “POLYMYXIN DERIVATIVES AND THEIR USE IN COMBINATION THERAPY TOGETHER WITH DIFFERENT ANTIBIOTICS” (priority 2014, published 2021)
Like-named read-outs stand apart in the source and are kept apart here.

How the values were obtained:
[1] = system: E. coli strains with elevated MICs to Polymyxin B; assay: MIC against strains with elevated MICs to Polymyxin B; type: cell-based, Escherichia coli; details: Table 6D; for MIC E. coli 058: strain 058, elevated MIC to Polymyxin B; for MIC E. coli 059: strain 059, elevated MIC to Polymyxin B; for MIC E. coli 060: strain 060, elevated MIC to Polymyxin B; for MIC E. coli 061: strain 061, elevated MIC to Polymyxin B
Description: (§1) The inoculum was prepared by making a direct suspension of isolated colonies (selected from an 18-24 hour Mueller-Hinton agar plate) adjusted to the 0.5 McFarland standard. […] The assays were performed in duplicate. […] In cases where the duplicate values varied by less than 2-fold, the lower of the two values is reported. If a variation of greater than 2-fold was observed, the assay was considered non-valid. Several of the compounds were subjected to multiple tests, and where this is the case, the MIC reflects the modal value obtained.
(§2) The Further Synthesis Examples were tested against a range of Gram negative bacteria, and tested for HK-2 cell toxicity. All the worked examples, including the Synthesis and Further Synthesis Examples, were also tested against a range of Gram negative bacteria that are resistant to Polymyxin B (i.e. those strains where Polymyxin B has an elevated MIC value).

[2] = system: K. pneumoniae strains with elevated MICs to Polymyxin B; assay: as above; type: cell-based, Klebsiella pneumoniae; details: Table 6D; for MIC K. pneumoniae 062: strain 062, elevated MIC to Polymyxin B; for MIC K. pneumoniae 063: strain 063, elevated MIC to Polymyxin B; for MIC K. pneumoniae 064: strain 064, elevated MIC to Polymyxin B; for MIC K. pneumoniae 655: strain 655, elevated MIC to Polymyxin B
Description: as §1, §2

[3] = system: P. aeruginosa strains with elevated MICs to Polymyxin B; assay: as above; type: cell-based, Pseudomonas aeruginosa; details: Table 6D; for MIC P. aeruginosa 065: strain 065, elevated MIC to Polymyxin B; for MIC P. aeruginosa 066: strain 066, elevated MIC to Polymyxin B; for MIC P. aeruginosa 067: strain 067, elevated MIC to Polymyxin B
Description: as §1, §2

[4] = system: A. baumanii strains with elevated MICs to Polymyxin B; assay: as above; type: cell-based, Acinetobacter baumannii; details: Table 6D; for MIC A. baumannii 053: strain 053, elevated MIC to Polymyxin B; for MIC A. baumannii 056: strain 056, elevated MIC to Polymyxin B; for MIC A. baumannii 068: strain 068, elevated MIC to Polymyxin B; for MIC A. baumannii 070: strain 070, elevated MIC to Polymyxin B
Description: as §1, §2

[5] = absence of a second agent, Table 6B

| Substance | MIC E. coli 058 [1] [micrograms/mL] | MIC E. coli 059 [1] [micrograms/mL] | MIC E. coli 060 [1] [micrograms/mL] | MIC E. coli 061 [1] [micrograms/mL] | MIC K. pneumoniae 062 [2] [micrograms/mL] | MIC K. pneumoniae 063 [2] [micrograms/mL] | MIC K. pneumoniae 064 [2] [micrograms/mL] | MIC K. pneumoniae 655 [2] [micrograms/mL] | MIC P. aeruginosa 065 [3] [micrograms/mL] | MIC P. aeruginosa 066 [3] [micrograms/mL] | MIC P. aeruginosa 067 [3] [micrograms/mL] | MIC A. baumannii 053 [4] [micrograms/mL] | MIC A. baumannii 056 [4] [micrograms/mL] | MIC A. baumannii 068 [4] [micrograms/mL] | MIC A. baumannii 070 [4] [micrograms/mL] | MIC, E. coli ATCC 25922 (E. coli; sole activity, Table 6C) [micrograms/mL] | MIC, K. pneumoniae ATCC 4352 (K. pneumoniae; sole activity, Table 6C) [micrograms/mL] | MIC, P. aeruginosa ATCC 27853 (P. aeruginosa; sole activity, Table 6C) [micrograms/mL] | MIC, P. aeruginosa CCUG 59347 (P. aeruginosa; sole activity, Table 6C) [micrograms/mL] | MIC, A. baumannii ATCC BAA-747 (A. baumannii; sole activity, Table 6C) [micrograms/mL] | also measured |
| --- | --- | --- | --- | --- | --- | --- | --- | --- | --- | --- | --- | --- | --- | --- | --- | --- | --- | --- | --- | --- | --- |
| (S)-3-amino-2- ((2- trifluoromethylben- zyl)amino)propa- noyl L-Thr-L- Dap-polymyxin B heptapeptide [Example D76] | 4 | 6 | 2 | 8 | 64 | 16 | 2 | 16 | 2 | 2 | 64 | 64 | 16 | 8 | 16 | 0.125 | 0.06 | 0.25 | 0.25 | 0.06 | MIC, E. coli NCTC 13441 (E. coli; sole activity, Table 6C): 0.25 micrograms/mL; MIC, K. pneumoniae ATCC BAA-2146 (K. pneumoniae; sole activity, Table 6C): 0.125 micrograms/mL; MIC, A. baumannii NCTC 13424 (A. baumannii; sole activity, Table 6C): 0.25 micrograms/mL |
| (S)-4-amino-2- ((2- trifluoromethyben- zyl)amino)butanoyl L-Thr-L-Dap- polymyxin B heptapeptide [Example D88] | 2 | 8 | 4 | 16 | 32 | 16 | 1 | 16 | 0.25 | 1 | >64 | >64 | 32 | 8 | 16 | 0.06 | 0.06 | 0.125 | 0.5 | 0.06 | MIC, A. baumannii NCTC 13424 (A. baumannii; sole activity, Table 6C): 0.06 micrograms/mL |
| (S)-4-amino-2- (((S)-6- methyloctyl)amino) butanoyl polymyxin B nonapeptide [Example D90] | 2 | 2 | 2 | 8 | 16 | 32 | 4 | 16 | 0.25 | 8 | 32 | 32 | 8 | 2 | 2 | 0.25 | 0.25 | 0.5 | 0.25 | 0.25 | MIC, A. baumannii NCTC 13424 (A. baumannii; sole activity, Table 6C): 0.25 micrograms/mL |
| (cis-5-octylpiperidine)- 3-carbonyl polymyxin B nonapeptide [Example D20] | – | 4 | 16 | 32 | >64 | >64 | >64 | >64 | – | 64 | >64 | >64 | >64 | 32 | 64 | – | – | – | – | – | MIC, E. coli ATCC 25922 (E. coli; [5]): 4 micrograms/mL; MIC, E. coli NCTC 13441 (E. coli; [5]): 4 micrograms/mL; MIC, K. pneumoniae ATCC 4352 (K. pneumoniae; [5]): 8 micrograms/mL; MIC, K. pneumoniae ATCC BAA-2146 (K. pneumoniae; [5]): >8 micrograms/mL; MIC, P. aeruginosa ATCC 27853 (P. aeruginosa; [5]): 0.5 micrograms/mL; MIC, P. aeruginosa CCUG 59347 (P. aeruginosa; [5]): 1 micrograms/mL; MIC, A. baumannii ATCC BAA-747 (A. baumannii; [5]): >8 micrograms/mL; MIC, A. baumannii NCTC 13424 (A. baumannii; [5]): >8 micrograms/mL |
| (cis-5-octylpiperidine)- 3-carbonyl polymyxin B nonapeptide [Example D21] | 1 | 0.5 | 1 | 2 | 2 | 32 | 1 | 32 | – | 2 | 4 | 8 | 4 | 1 | 2 | – | – | – | – | – | MIC, E. coli ATCC 25922 (E. coli; [5]): 0.5 micrograms/mL; MIC, E. coli NCTC 13441 (E. coli; [5]): 0.5 micrograms/mL; MIC, K. pneumoniae ATCC 4352 (K. pneumoniae; [5]): 0.25 micrograms/mL; MIC, K. pneumoniae ATCC BAA-2146 (K. pneumoniae; [5]): 1 micrograms/mL; MIC, P. aeruginosa ATCC 27853 (P. aeruginosa; [5]): 0.5 micrograms/mL; MIC, P. aeruginosa CCUG 59347 (P. aeruginosa; [5]): 0.5 micrograms/mL; MIC, A. baumannii ATCC BAA-747 (A. baumannii; [5]): 0.5 micrograms/mL; MIC, A. baumannii NCTC 13424 (A. baumannii; [5]): 2 micrograms/mL |
| (trans-5- (cyclohexyl- piperidine)-3- carbonyl L-Thr-L- Dap-polymyxin B heptapeptide [Example D78] | 0.5 | 0.5 | 1 | 1 | – | 4 | 1 | 4 | 1 | 0.5 | 32 | 8 | 50.25 | 1 | 1 | 0.125 | 0.06 | 0.5 | 0.5 | 0.06 | MIC, E. coli NCTC 13441 (E. coli; sole activity, Table 6C): 0.125 micrograms/mL; MIC, K. pneumoniae ATCC BAA-2146 (K. pneumoniae; sole activity, Table 6C): 0.125 micrograms/mL; MIC, A. baumannii NCTC 13424 (A. baumannii; sole activity, Table 6C): 0.06 micrograms/mL |
| (trans-5- octylpiperidine)-3- carbonyl polymyxin B nonapeptide [Example D22] | – | 8 | 16 | 64 | >64 | >64 | >64 | >256 | – | >64 | >64 | >64 | >64 | 4 | 4 | – | – | – | – | – | MIC, E. coli ATCC 25922 (E. coli; [5]): 4 micrograms/mL; MIC, E. coli NCTC 13441 (E. coli; [5]): 4 micrograms/mL; MIC, K. pneumoniae ATCC BAA-2146 (K. pneumoniae; [5]): >8 micrograms/mL; MIC, P. aeruginosa ATCC 27853 (P. aeruginosa; [5]): 2 micrograms/mL; MIC, P. aeruginosa CCUG 59347 (P. aeruginosa; [5]): 1 micrograms/mL; MIC, A. baumannii ATCC BAA-747 (A. baumannii; [5]): >8 micrograms/mL; MIC, A. baumannii NCTC 13424 (A. baumannii; [5]): >8 micrograms/mL |
